Assay results taken from US20240000724A1, “Compositions and Methods for Treatment or Prevention of Oral Mucositis” (PATHWAYS BIOSCIENCE, LLC, priority 2015, published 2024).
Entries after “also recorded” stand apart in the source; their conditions may differ. Like-named read-outs stand apart in the source and are kept apart here.

Legend:
[1] = tested on: Interleukin-8 (IL-8) release, primary human lung epithelial cells; assay: IL-8 release from primary human lung epithelial cells stimulated with cigarette smoke extract; type: cell-based; conditions: primary human lung epithelial cells exposed to CSE for 7 days, vs untreated CSE-stimulated cells
From the text: As an example of the cell protective mechanisms induced by PB201 treatment, release of the proinflammatory cytokine Interleukin-8 (IL-8) was attenuated in primary human lung epithelial cells treated with PB201 compared to untreated cells when both were stimulated with cigarette smoke extract (FIG. 9).

HepG2 cells = assay: Affymetrix PrimeView gene expression array of PB201-treated HepG2 cells; type: cell-based; conditions: Homo sapiens, 1.5 micrograms/mL, 18 hours
Method: As an example of the cell protective mechanisms induced by PB201 treatment, gene upregulation in cells treated with PB201 was examined. Briefly, cultured HepG2 liver cells were treated with PB201 at 1.5 micrograms/mL concentration for 18 hours, then total RNA was extracted from the HepG2 cells by using the RNeasy Total RNA Isolation Kit (QIAGEN Inc. Valencia, California, USA). The concentration of each sample was determined based on the absorbance at 260 nm (A260). The purity of each sample was determined based on the ratio of A260 to A280. A range of 1.9-2.1 was considered adequately pure. The integrity of Total RNA samples was verified by Agilent 2200 Tape Station. Total RNA (250 ng) was converted to double-stranded cDNA (ds-cDNA) by using the cDNA synthesis kit (Affymetrix). An oligo-dT primer containing a T7 RNA polymerase promoter was utilized. The ds-cDNA was then purified and recovered by using purification beads (Affymetrix). Next, in vitro transcription was performed to generate biotin-labeled cRNA using a RNA Transcript Labeling Kit (Affymetrix). Biotin-labeled cRNA was purified using an RNeasy affinity column (Qiagen).
To ensure optimal hybridization to the oligonucleotide array, the cRNA was fragmented. Fragmentation was performed such that the cRNA fragments are between 50-200 bases in length by incubating the cRNA at 94° C. for 35 min in a fragmentation buffer. The sample was then added to a hybridization solution containing 100 mM IVIES, 1 M Na+, and 20 mM EDTA in the presence of 0.01% Tween 20. The final concentration of the fragmented cRNA was […]. Hybridization was performed by incubating 200 uL of the sample to the Affymetrix GeneChip® PrimeView™ human gene expression array (Affymetrix Inc., Santa Clara, California, USA) at 45° C. for 16 hours using a GeneChip® Hybridization Oven 640 (Affymetrix).
After hybridization, the hybridization solutions were removed and the arrays were washed and stained with Streptavidin-phycoerythrin using a GeneChip® Fluidics Station 450 (Affymetrix). Arrays were read at a resolution of 2.5 to 3 microns using the GeneChip Scanner 3000 (Affymetrix). Each gene was represented by the use of −11 probes per transcript and many control probes. The Command Console GeneChip software program was used to determine the intensity of expression for all genes on the array. For this experiment, fold-induction of genes by PB201 treatment of HepG2 cells was calculated compared to the average intensity observed in control HepG2 cells in culture solution without any added stimulus such as PB201.

Q: `O=C(CC(=O)c1ccccc1)c1ccccc1` [PB201, 1,3-diphenyl-1,3-propanedione] was tested. Which IL-8 release [1] did it give?
A: significantly decreased; also recorded: attenuated

Q: What about the fold induction at 1.5 µg/mL (HepG2 cells; vs control HepG2, read-out: Fold induction by PB201: AGPAT9) of the same compound?
A: 2.46

Q: What about the fold induction at 1.5 µg/mL (HepG2 cells; vs control HepG2, read-out: Fold induction by PB201: AKR1B10///AKR1B15) of the same compound?
A: 5.85

Q: And the fold induction at 1.5 µg/mL (HepG2 cells; vs control HepG2, read-out: Fold induction by PB201: AKR1B15)?
A: 4.1

Q: And the fold induction at 1.5 µg/mL (HepG2 cells; vs control HepG2, read-out: Fold induction by PB201: AKR1C1)?
A: 4.97

Q: What about the fold induction at 1.5 µg/mL (HepG2 cells; vs control HepG2, read-out: Fold induction by PB201: AKR1C2///LOC100653286) of the same compound?
A: 6.56

Q: And the fold induction at 1.5 µg/mL (HepG2 cells; vs control HepG2, read-out: Fold induction by PB201: AQP3)?
A: 3

Q: What about the fold induction at 1.5 µg/mL (HepG2 cells; vs control HepG2, read-out: Fold induction by PB201: BHMT2) of the same compound?
A: 3.8

Q: And the fold induction at 1.5 µg/mL (HepG2 cells; vs control HepG2, read-out: Fold induction by PB201: CCPG1///DYX1C1-CCPG1)?
A: 2.51

Q: What about the fold induction at 1.5 µg/mL (HepG2 cells; vs control HepG2, read-out: Fold induction by PB201: CYP4F3) of the same compound?
A: 2.46

Q: And the fold induction at 1.5 µg/mL (HepG2 cells; vs control HepG2, read-out: Fold induction by PB201: CYP4F11)?
A: 4.43

Q: What about the fold induction at 1.5 µg/mL (HepG2 cells; vs control HepG2, read-out: Fold induction by PB201: EID3) of the same compound?
A: 4.18

Q: What about the fold induction at 1.5 µg/mL (HepG2 cells; vs control HepG2, read-out: Fold induction by PB201: FOS) of the same compound?
A: 2.91

Q: What about the fold induction at 1.5 µg/mL (HepG2 cells; vs control HepG2, read-out: Fold induction by PB201: FTH1) of the same compound?
A: 2.62

Q: And the fold induction at 1.5 µg/mL (HepG2 cells; vs control HepG2, read-out: Fold induction by PB201: GCLM)?
A: 4.03

Q: What about the fold induction at 1.5 µg/mL (HepG2 cells; vs control HepG2, read-out: Fold induction by PB201: GLA) of the same compound?
A: 2.59

Q: And the fold induction at 1.5 µg/mL (HepG2 cells; vs control HepG2, read-out: Fold induction by PB201: GSTA1///GSTA2)?
A: 6.99

Q: And the fold induction at 1.5 µg/mL (HepG2 cells; vs control HepG2, read-out: Fold induction by PB201: HMOX1)?
A: 3.64

Q: What about the fold induction at 1.5 µg/mL (HepG2 cells; vs control HepG2, read-out: Fold induction by PB201: KYNU) of the same compound?
A: 3.9

Q: What about the fold induction at 1.5 µg/mL (HepG2 cells; vs control HepG2, read-out: Fold induction by PB201: MLLT11) of the same compound?
A: 2.71

Q: What about the fold induction at 1.5 µg/mL (HepG2 cells; vs control HepG2, read-out: Fold induction by PB201: OSGIN1) of the same compound?
A: 3.18

Q: What about the fold induction at 1.5 µg/mL (HepG2 cells; vs control HepG2, read-out: Fold induction by PB201: PANX2) of the same compound?
A: 2.88

Q: And the fold induction at 1.5 µg/mL (HepG2 cells; vs control HepG2, read-out: Fold induction by PB201: PTGR1)?
A: 4.79

Q: What about the fold induction at 1.5 µg/mL (HepG2 cells; vs control HepG2, read-out: Fold induction by PB201: SLC16A6) of the same compound?
A: 3.8

Q: And the fold induction at 1.5 µg/mL (HepG2 cells; vs control HepG2, read-out: Fold induction by PB201: SQSTM1)?
A: 2.84

Q: And the fold induction at 1.5 µg/mL (HepG2 cells; vs control HepG2, read-out: Fold induction by PB201: SRXN1)?
A: 2.8

Q: And the fold induction at 1.5 µg/mL (HepG2 cells; vs control HepG2, read-out: Fold induction by PB201: TEX19)?
A: 3

Q: And the fold induction at 1.5 µg/mL (HepG2 cells; vs control HepG2, read-out: Fold induction by PB201: TRPV3)?
A: 3.51

Q: What about the fold induction at 1.5 µg/mL (HepG2 cells; vs control HepG2, read-out: Fold induction by PB201: TUBA4A) of the same compound?
A: 2.55
